Test results published in ChEMBL document CHEMBL1140081 (J Med Chem, 2008).

Tests used:
[1] = Terminal half life in dog at 1 mg/kg, iv; type: ADME, organism-based, Canis lupus familiaris; parameters: dose 1 mg/kg, route intravenous; details: in vivo, read-out: beta t1/2 (converted)
[2] = Volume of distribution in rhesus monkey at 1 mg/kg, iv; details: in vivo
[3] = Oral bioavailability in po dosed dog; type: ADME, organism-based, Canis lupus familiaris; details: in vivo
[4] = tested on: Human immunodeficiency virus 1; experiment: Antiviral activity against HIV1 3B in human MT4 cells in presence of 10% heat-inactivated fetal bovine serum; details: Human immunodeficiency virus 1, 3B, read-out: CIC95
[5] = tested on: Human immunodeficiency virus 1; experiment: Antiviral activity against HIV1 with integrase T66I/M154 mutation by single cycle infectivity assay in presence of 10%FBS; type: functional
[6] = AUC in Sprague-Dawley rat at 3 mg/kg, po; type: ADME, organism-based; parameters: dose 3 mg/kg, route oral; details: plasma
[7] = Terminal half life in rhesus monkey at 1 mg/kg, iv; type: ADME, organism-based, Macaca mulatta; parameters: dose 1 mg/kg, route intravenous; details: in vivo, read-out: beta t1/2 (converted)
[8] = tested on: Human immunodeficiency virus 1; experiment: Antiviral activity against HIV1 with integrase T125K/F121Y mutation by single cycle infectivity assay in presence of 10%FBS; type: functional
[9] = Cmax in dog at 2 mg/kg, po; type: ADME, organism-based, Canis lupus familiaris; parameters: dose 2 mg/kg, route oral; details: in vivo
[10] = Inhibition of HCV polymerase; parameters: species or system Hepacivirus hominis
[11] = AUC in rhesus monkey at 10 mg/kg, po; type: ADME, organism-based, Macaca mulatta; parameters: dose 10 mg/kg, route oral; details: plasma
[12] = Terminal half life in Sprague-Dawley rat at 3 mg/kg, iv; type: ADME, organism-based; parameters: dose 3 mg/kg, route intravenous; details: in vivo, read-out: beta t1/2 (converted)
[13] = AUC in dog at 10 mg/kg, po; type: ADME, organism-based, Canis lupus familiaris; parameters: dose 10 mg/kg, route oral; details: plasma
Cytochrome P450 2C9 = Cytochrome P450 2C9 (Homo sapiens, UniProt P11712); experiment: Inhibition of CYP2C9; type: ADME
Chain of Cytochrome P450 2C9 (P11712 whole entry): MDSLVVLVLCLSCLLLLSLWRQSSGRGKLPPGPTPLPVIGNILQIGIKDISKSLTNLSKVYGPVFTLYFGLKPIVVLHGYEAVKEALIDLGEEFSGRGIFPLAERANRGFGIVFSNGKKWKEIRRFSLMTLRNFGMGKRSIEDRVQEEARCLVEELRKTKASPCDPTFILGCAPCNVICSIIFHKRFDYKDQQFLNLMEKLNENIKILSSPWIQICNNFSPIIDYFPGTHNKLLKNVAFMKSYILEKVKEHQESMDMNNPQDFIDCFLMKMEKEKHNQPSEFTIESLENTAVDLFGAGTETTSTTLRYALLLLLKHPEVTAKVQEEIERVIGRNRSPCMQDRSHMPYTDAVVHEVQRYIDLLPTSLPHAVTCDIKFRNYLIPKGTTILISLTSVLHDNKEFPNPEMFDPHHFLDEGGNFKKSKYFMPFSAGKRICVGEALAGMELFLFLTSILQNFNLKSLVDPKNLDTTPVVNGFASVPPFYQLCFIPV

[14] = Cmax in dog at 10 mg/kg, po; type: ADME, organism-based, Canis lupus familiaris; parameters: dose 10 mg/kg, route oral; details: in vivo
[15] = Inhibition of human DNA polymerase alpha
[16] = Plasma clearance in dog at 1 mg/kg, iv; type: ADME, organism-based, Canis lupus familiaris; parameters: dose 1 mg/kg, route intravenous
Cytochrome P450 1A2 = target: T1, Cytochrome P450 1A2 (Homo sapiens, UniProt P05177); experiment: Inhibition of CYP1A2; type: ADME
T1 sequence (P05177 whole entry): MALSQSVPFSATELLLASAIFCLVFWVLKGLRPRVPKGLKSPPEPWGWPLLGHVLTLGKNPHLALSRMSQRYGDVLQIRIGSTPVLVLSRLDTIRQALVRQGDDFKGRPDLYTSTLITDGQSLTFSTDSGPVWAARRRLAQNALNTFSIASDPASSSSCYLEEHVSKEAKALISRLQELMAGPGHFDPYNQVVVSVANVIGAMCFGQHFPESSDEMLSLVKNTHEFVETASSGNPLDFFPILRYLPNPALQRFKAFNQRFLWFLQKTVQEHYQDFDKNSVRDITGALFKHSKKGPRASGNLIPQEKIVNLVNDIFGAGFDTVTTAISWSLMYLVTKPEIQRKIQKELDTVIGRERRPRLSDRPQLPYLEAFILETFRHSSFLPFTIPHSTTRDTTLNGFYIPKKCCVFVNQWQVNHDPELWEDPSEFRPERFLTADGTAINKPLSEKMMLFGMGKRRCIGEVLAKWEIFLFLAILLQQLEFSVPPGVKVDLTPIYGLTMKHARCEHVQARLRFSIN

[17] = tested on: Human immunodeficiency virus 1; experiment: Antiviral activity against HIV1 with integrase N155S mutation by single cycle infectivity assay in presence of 10%FBS; type: functional
[18] = Oral bioavailability in po dosed Sprague-Dawley rat; type: ADME, organism-based; details: in vivo
[19] = Cmax in po dosed rhesus monkey; type: ADME, organism-based, Macaca mulatta; parameters: route oral; details: in vivo
[20] = Plasma clearance in rhesus monkey at 1 mg/kg, iv; type: ADME, organism-based, Macaca mulatta; parameters: dose 1 mg/kg, route intravenous
[21] = Cmax in Sprague-Dawley rat at 3 mg/kg, po; type: ADME, organism-based; parameters: dose 3 mg/kg, route oral; details: in vivo
[22] = Plasma clearance in Sprague-Dawley rat at 3 mg/kg, iv; type: ADME, organism-based; parameters: dose 3 mg/kg, route intravenous
[23] = Volume of distribution in dog at 1 mg/kg, iv; type: ADME, organism-based, Canis lupus familiaris; parameters: dose 1 mg/kg, route intravenous; details: in vivo
[24] = tested on: Human immunodeficiency virus 1; experiment: Antiviral activity against HIV1 with integrase T66I/L74M/V151I mutation by single cycle infectivity assay in presence of 10%FBS; type: functional
[25] = Terminal half life in po dosed rhesus monkey; type: ADME, organism-based, Macaca mulatta; details: in vivo, read-out: beta t1/2 (converted)
DNA polymerase beta = DNA polymerase beta (Homo sapiens, UniProt P06746); experiment: Inhibition of human DNA polymerase beta
[26] = Oral bioavailability in po dosed rhesus monkey; type: ADME, organism-based, Macaca mulatta; details: in vivo
[27] = tested on: Human immunodeficiency virus 1; experiment: Antiviral activity against HIV1 with integrase T66I/S153Y mutation by single cycle infectivity assay in presence of 10%FBS; type: functional
[28] = Inhibition of HIV ribonuclease H; parameters: species or system Human immunodeficiency virus
[29] = Volume of distribution in Sprague-Dawley rat at 3 mg/kg, iv; type: ADME, organism-based; parameters: dose 3 mg/kg, route intravenous; details: in vivo
Cytochrome P450 3A4 = Cytochrome P450 3A4 (Homo sapiens, UniProt P08684); experiment: Inhibition of CYP3A4; type: ADME
Chain of Cytochrome P450 3A4 (P08684 whole entry): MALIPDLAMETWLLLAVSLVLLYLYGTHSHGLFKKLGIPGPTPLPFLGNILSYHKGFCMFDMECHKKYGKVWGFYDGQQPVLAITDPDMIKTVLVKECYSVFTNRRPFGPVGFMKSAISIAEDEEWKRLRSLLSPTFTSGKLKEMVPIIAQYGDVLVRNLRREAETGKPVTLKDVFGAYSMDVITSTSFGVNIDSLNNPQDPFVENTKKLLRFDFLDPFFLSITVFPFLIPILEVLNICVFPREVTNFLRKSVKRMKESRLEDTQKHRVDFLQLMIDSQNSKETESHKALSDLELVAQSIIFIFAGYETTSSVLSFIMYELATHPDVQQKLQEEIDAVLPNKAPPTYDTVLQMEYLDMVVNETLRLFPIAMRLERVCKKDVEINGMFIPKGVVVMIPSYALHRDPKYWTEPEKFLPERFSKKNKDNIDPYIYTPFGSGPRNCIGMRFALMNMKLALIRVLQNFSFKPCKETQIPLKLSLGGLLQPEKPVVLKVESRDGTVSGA

[30] = Inhibition of human DNA polymerase gamma
[31] = Inhibition of HIV reverse transcriptase; parameters: species or system Human immunodeficiency virus
Cytochrome P450 2D6 = Cytochrome P450 2D6 (Homo sapiens, UniProt P10635); experiment: Inhibition of CYP2D6; type: ADME
Chain of Cytochrome P450 2D6 (P10635 whole entry): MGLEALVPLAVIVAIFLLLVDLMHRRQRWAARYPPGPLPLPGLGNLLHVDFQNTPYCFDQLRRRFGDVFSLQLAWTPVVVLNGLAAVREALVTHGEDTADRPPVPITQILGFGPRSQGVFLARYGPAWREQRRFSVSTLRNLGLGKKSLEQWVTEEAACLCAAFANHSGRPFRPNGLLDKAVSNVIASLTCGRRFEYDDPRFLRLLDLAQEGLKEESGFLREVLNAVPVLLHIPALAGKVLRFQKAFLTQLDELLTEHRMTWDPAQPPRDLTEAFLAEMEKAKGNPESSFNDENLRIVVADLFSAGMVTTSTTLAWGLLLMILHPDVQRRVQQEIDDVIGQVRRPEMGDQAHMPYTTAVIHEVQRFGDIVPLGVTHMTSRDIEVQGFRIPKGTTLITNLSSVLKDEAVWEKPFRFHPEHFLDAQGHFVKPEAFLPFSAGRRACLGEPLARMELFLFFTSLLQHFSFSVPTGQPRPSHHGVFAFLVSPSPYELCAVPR

[32] = tested on: Human immunodeficiency virus 1; experiment: Antiviral activity against HIV1 3B in human MT4 cells in presence of 50% normal human serum; type: functional; details: Human immunodeficiency virus 1, 3B, MT4; read-out: CIC95
[33] = AUC in dog at 2 mg/kg, po; type: ADME, organism-based, Canis lupus familiaris; parameters: dose 2 mg/kg, route oral; details: plasma
[34] = Protein binding in rhesus monkey plasma; type: ADME, cell-free, Macaca mulatta; details: read-out: PPB (converted)
[35] = Protein binding in dog plasma; type: ADME, cell-free, Canis lupus familiaris; details: read-out: PPB (converted)
[36] = Protein binding in Sprague-Dawley rat plasma; type: ADME, cell-free; details: read-out: PPB (converted)
[37] = Cmax in po dosed Sprague-Dawley rat; type: ADME, organism-based; parameters: route oral; details: in vivo
[38] = Protein binding in human plasma; type: ADME, cell-free; details: read-out: PPB (converted)
[39] = target: Human immunodeficiency virus type 1 integrase (Human immunodeficiency virus 1, UniProt Q7ZJM1); experiment: Inhibition of HIV1 recombinant integrase strand transfer activity
Chain of Human immunodeficiency virus type 1 integrase (Q7ZJM1 whole entry): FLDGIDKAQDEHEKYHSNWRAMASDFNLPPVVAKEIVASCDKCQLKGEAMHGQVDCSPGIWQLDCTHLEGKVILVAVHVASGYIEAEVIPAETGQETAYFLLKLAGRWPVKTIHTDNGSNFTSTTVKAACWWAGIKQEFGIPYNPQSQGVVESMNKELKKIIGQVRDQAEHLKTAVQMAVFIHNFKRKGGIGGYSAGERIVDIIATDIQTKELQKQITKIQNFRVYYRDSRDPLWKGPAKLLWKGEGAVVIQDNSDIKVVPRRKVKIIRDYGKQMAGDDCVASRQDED

[40] = Terminal half life in dog at 10 mg/kg, po; type: ADME, organism-based, Canis lupus familiaris; parameters: dose 10 mg/kg, route oral; details: in vivo, read-out: beta t1/2 (converted)
[41] = Terminal half life in po dosed Sprague-Dawley rat; type: ADME, organism-based; details: in vivo
[42] = Plasma concentration in dog at 10 mg/kg, po after 12 hrs; type: ADME, organism-based, Canis lupus familiaris; parameters: dose 10 mg/kg, route oral

Cc1nnc(C(=O)NC(C)(C)c2nc(C(=O)NCc3ccc(F)cc3)c(O)c(=O)n2C)o1 showed a half-life [1] of 11 h, a Vd [2] of 1.2 L/kg and a bioavailability [3] of 45%. It also gave an IC95 [4] of 19 nM, an Activity [5] of 1% and an AUC [6] of 1 µM·h. It also gave a half-life [7] of 4 h, an Activity [8] of 8% and a Cmax [9] of 3000 nM. The IC50 [10] was > 50000 nM, the AUC [11] was 1.8 µM·h and the half-life [12] was 2 h. For the same molecule, the AUC [13] was 21 µM·h, the IC50 (Cytochrome P450 2C9) was > 50000 nM and the Cmax [14] was 8000 nM. For the same molecule, the IC50 [15] was > 50000 nM, the clearance [16] was 6 mL/min/kg and the IC50 (Cytochrome P450 1A2) was > 50000 nM. The Activity [17] was 10%, the bioavailability [18] was 37% and the Cmax [19] was 300 nM. It also gave a clearance [20] of 18 mL/min/kg, a Cmax [21] of 1200 nM and a clearance [22] of 39 mL/min/kg. The Vd [23] was 0.9 L/kg, the Activity [24] was 6% and the half-life [25] was 7 h. For the same molecule, the IC50 (DNA polymerase beta) was > 50000 nM, the bioavailability [26] was 8% and the Activity [27] was 1%. For the same molecule, the IC50 [28] was > 50000 nM, the Vd [29] was 2 L/kg and the IC50 (Cytochrome P450 3A4) was > 50000 nM. For the same molecule, the IC50 [30] was > 50000 nM, the IC50 [31] was > 50000 nM and the IC50 (Cytochrome P450 2D6) was > 50000 nM. It also gave an IC95 [32] of 31 nM and an AUC [33] of 7 µM·h.
CN(C)C(C)(C)c1nc(O)c(O)c(C(=O)NCc2ccc(F)cc2)n1 showed an IC95 [4] of 60 nM and an IC95 [32] of 78 nM.
CN1CCOCC1c1nc(C(=O)NCc2ccc(F)cc2)c(O)c(=O)n1C (centres undefined) showed an IC95 [4] of 60 nM and an IC95 [32] of 100 nM.
O=C(NCc1ccc(F)cc1)c1nc(N2CCCCS2(=O)=O)c2cccnc2c1O showed an Activity [5] of 3%, an Activity [8] of 12% and an Activity [17] of 10%. The Activity [24] was 9% and the Activity [27] was 1.3%.
Cc1nnc(C(=O)NC(C)(C)c2nc(C(=O)NCc3ccc(F)cc3)c([O-])c(=O)n2C)o1.[Na+] showed a fraction unbound [34] of 0.85, an AUC [6] of 1.4 µM·h and a fraction unbound [35] of 0.71. It also gave a fraction unbound [36] of 0.74, a Cmax [37] of 1000 nM and a fraction unbound [38] of 0.83.
In the case of Cn1c(C(C)(C)NC(=O)c2cccnn2)nc(C(=O)NCc2ccc(F)cc2)c(O)c1=O, the IC95 [4] is reported as 62 nM, the IC50 [39] is reported as 15 nM and the IC95 [32] is reported as 500 nM.
Cn1c(C(C)(C)NC(=O)c2cnco2)nc(C(=O)NCc2ccc(F)cc2)c(O)c1=O showed an IC95 [4] of 500 nM, an IC50 [39] of 7 nM and an IC95 [32] of 500 nM.
In the case of Cn1c(C(C)(C)NC(=O)c2cscn2)nc(C(=O)NCc2ccc(F)cc2)c(O)c1=O, the IC95 [4] is reported as < 78 nM, the IC50 [39] is reported as 8 nM and the IC95 [32] is reported as 312 nM.
In the case of CN(C)C(=O)C(=O)NC(C)(C)c1nc(C(=O)NCc2ccc(F)c(Cl)c2)c(O)c(=O)n1C, the IC95 [4] is reported as 31 nM, the IC50 [39] is reported as 9 nM and the IC95 [32] is reported as 130 nM.
Work on Cn1c(C(C)(C)NC(=O)c2ccccn2)nc(C(=O)NCc2ccc(F)cc2)c(O)c1=O yielded an IC95 [4] of 125 nM, an IC50 [39] of 20 nM and an IC95 [32] of 1000 nM.
With COc1cccc(CNC(=O)c2nc(C(C)(C)NC(=O)C(=O)N(C)C)n(C)c(=O)c2O)c1OC the IC95 [4] was 1000 nM, the IC50 [39] was 21 nM and the IC95 [32] was > 1000 nM.
Work on Cn1c(C(C)(C)NC(=O)c2c[nH]cn2)nc(C(=O)NCc2ccc(F)cc2)c(O)c1=O yielded an IC95 [4] of 250 nM, an IC50 [39] of 6 nM and an IC95 [32] of 250 nM.
In the case of CN(C)C(=O)C(=O)NC(C)(C)c1nc(C(=O)NCc2ccc(F)cc2)c([O-])c(=O)n1C.[Na+], the half-life [40] is reported as 11.9 h, the fraction unbound [34] is reported as 0.82 and the bioavailability [3] is reported as 93%. The AUC [6] was 2.2 µM·h, the AUC [13] was 47 µM·h and the fraction unbound [35] was 0.62. The half-life [41] was 2.3 h, the Cmax [14] was 32000 nM and the bioavailability [18] was 36%. It also gave a Cmax [21] of 4100 nM, a fraction unbound [36] of 0.65 and a concentration at 12 h [42] of 246 nM. It also gave an IC95 [32] of 125 nM and a fraction unbound [38] of 0.72.
With Cn1c(C(C)(C)N2CCOCC2)nc(C(=O)NCc2ccc(F)cc2)c(O)c1=O the IC95 [4] was 65 nM, the IC50 [39] was 3 nM and the IC95 [32] was 500 nM.
For CN(C)C1(c2nc(C(=O)NCc3ccc(F)cc3)c(O)c(=O)n2C)CCOCC1, the IC95 [4] was 250 nM, the IC50 [39] was 2 nM and the IC95 [32] was 1000 nM.
